According to patent EP2689855B1, “Modified micronization device and use thereof” (Oekomineral AG, priority 2012, dated 2014):
Values after ≈ are worked out from the molar mass of the structure shown. Each block holds one compound with its values, some of them ahead of it.

Assays:
Assay type in all cases: physicochemical
[1] = Water solubility measurement of micronized Pterostilbene; settings: thermodynamic from solid
Procedure: 1.00 kg of Pterostilbene (98% purity, Organic Herb, China) 50 µm of crystalline particles as model substance were subjected to micronization from present invention with additional maintaining of low temperature (20 °C) of substance via slow liquid nitrogen stream flow addition through neck feeder. In this preparation discs with blades in the shape of cubes and extruded triangles were used (Figure 7) , according to the present invention.
Such prepared samples of micronized Pterostilbene were subjected to particles size analyses and water solubility measurement.

[2] = Particle size analysis (Malvern MasterSizer 2000) of micronized samples; settings: ursolic acid
From the text: The influence of the shape of the blades on the efficiency of the micronization has been studied by the use of the micronization device shown in Figures 1 and 2 from the prior art of the following technical characteristics: • (i) diameter of discs (Ø) of micronizer was 370 mm; • (ii) number of layers of hitting elements (blades) on the discs was 3 on primary and 2 on secondary disc; • (iii) number of blades on each of wreaths of discs was 20/16 (outer/inner wreath) from one side; and 18/16 (outer/inner wreath) from the other side of the micronizer; • (iv) the rotation velocity was 10000 rpm;
1 kg of each sample of same zeolite clinoptilolite was micronized by using the device according to the prior art and three different hitting elements as depicted in figures 5, 6 and 8. The disintegrators are characterized by the following data: • 1. Plates formed according to US4406409 A (Figure 5; Micronization-1); • 2. Slightly curved and indented plates according to HR990263 A2 (Figure 6; Micronizationt-2); and • 3. The hitting elements according to the present invention (Figure 8; Micronization-3) […]
(§1) 1 kg of each sample of ursolic acid (98% purity, Sigma Aldrich) of an average particle size of 30 µm was micronized five times in devices having different hitting elements. The discs were cooled through a feeder opening with liquid nitrogen spraying to avoid overheating of the heat-sensitive substance.
The micronized samples were analyzed for particle size (Malvern MasterSizer 2000), while the extent of crystalline disorder of particles was quantified with isothermal calorimetry (IC TAM 3, TA instruments, USA). Data was recorded with proprietary software Digitam 4.2. […]

[3] = Amorphous content / crystalline disorder by isothermal calorimetry (IC TAM 3); settings: ursolic acid
Procedure: as §1
The micronized samples were analyzed for particle size (Malvern MasterSizer 2000), while the extent of crystalline disorder of particles was quantified with isothermal calorimetry (IC TAM 3, TA instruments, USA). Data was recorded with proprietary software Digitam 4.2.

solubility ([1]; after seven repeated processes of micronization, blades of present invention (Figure 7)): 128 µg/mL (≈ 499 µM)
solubility ([1]; before micronization): 23 µg/mL (≈ 89.7 µM)
SMILES: COc1cc(/C=C/c2ccc(O)cc2)cc(OC)c1 [Pterostilbene]

Volume (%) under ([2]; Particles size 0.105 µm, MICRONIZATION-1, five repeated micronization procedures): 0.00%
Volume (%) under ([2]; Particles size 0.105 µm, MICRONIZATION-2, five repeated micronization procedures): 0.00%
Volume (%) under ([2]; Particles size 0.105 µm, MICRONIZATION-3, five repeated micronization procedures): 0.00%
Volume (%) under ([2]; Particles size 0.120 µm, MICRONIZATION-1, five repeated micronization procedures): 0.00%
Volume (%) under ([2]; Particles size 0.120 µm, MICRONIZATION-2, five repeated micronization procedures): 0.00%
Volume (%) under ([2]; Particles size 0.120 µm, MICRONIZATION-3, five repeated micronization procedures): 0.00%
Volume (%) under ([2]; Particles size 0.138 µm, MICRONIZATION-1, five repeated micronization procedures): 0.00%
Volume (%) under ([2]; Particles size 0.138 µm, MICRONIZATION-2, five repeated micronization procedures): 0.00%
Volume (%) under ([2]; Particles size 0.138 µm, MICRONIZATION-3, five repeated micronization procedures): 0.00%
Volume (%) under ([2]; Particles size 0.158 µm, MICRONIZATION-1, five repeated micronization procedures): 0.00%
Volume (%) under ([2]; Particles size 0.158 µm, MICRONIZATION-2, five repeated micronization procedures): 0.00%
Volume (%) under ([2]; Particles size 0.158 µm, MICRONIZATION-3, five repeated micronization procedures): 0.28%
Volume (%) under ([2]; Particles size 0.182 µm, MICRONIZATION-1, five repeated micronization procedures): 0.00%
Volume (%) under ([2]; Particles size 0.182 µm, MICRONIZATION-2, five repeated micronization procedures): 0.00%
Volume (%) under ([2]; Particles size 0.182 µm, MICRONIZATION-3, five repeated micronization procedures): 1.38%
Volume (%) under ([2]; Particles size 0.209 µm, MICRONIZATION-1, five repeated micronization procedures): 0.00%
Volume (%) under ([2]; Particles size 0.209 µm, MICRONIZATION-2, five repeated micronization procedures): 0.12%
Volume (%) under ([2]; Particles size 0.209 µm, MICRONIZATION-3, five repeated micronization procedures): 2.73%
Volume (%) under ([2]; Particles size 0.240 µm, MICRONIZATION-1, five repeated micronization procedures): 0.00%
Volume (%) under ([2]; Particles size 0.240 µm, MICRONIZATION-2, five repeated micronization procedures): 0.46%
Volume (%) under ([2]; Particles size 0.240 µm, MICRONIZATION-3, five repeated micronization procedures): 3.69%
Volume (%) under ([2]; Particles size 0.275 µm, MICRONIZATION-1, five repeated micronization procedures): 0.01%
Volume (%) under ([2]; Particles size 0.275 µm, MICRONIZATION-2, five repeated micronization procedures): 1.19%
Volume (%) under ([2]; Particles size 0.275 µm, MICRONIZATION-3, five repeated micronization procedures): 5.39%
Volume (%) under ([2]; Particles size 0.316 µm, MICRONIZATION-1, five repeated micronization procedures): 0.06%
Volume (%) under ([2]; Particles size 0.316 µm, MICRONIZATION-2, five repeated micronization procedures): 1.97%
Volume (%) under ([2]; Particles size 0.316 µm, MICRONIZATION-3, five repeated micronization procedures): 8.42%
Volume (%) under ([2]; Particles size 0.363 µm, MICRONIZATION-1, five repeated micronization procedures): 0.23%
Volume (%) under ([2]; Particles size 0.363 µm, MICRONIZATION-2, five repeated micronization procedures): 2.83%
Volume (%) under ([2]; Particles size 0.363 µm, MICRONIZATION-3, five repeated micronization procedures): 11.76%
Volume (%) under ([2]; Particles size 0.417 µm, MICRONIZATION-1, five repeated micronization procedures): 0.50%
Volume (%) under ([2]; Particles size 0.417 µm, MICRONIZATION-2, five repeated micronization procedures): 4.09%
Volume (%) under ([2]; Particles size 0.417 µm, MICRONIZATION-3, five repeated micronization procedures): 14.01%
Volume (%) under ([2]; Particles size 0.479 µm, MICRONIZATION-1, five repeated micronization procedures): 0.87%
Volume (%) under ([2]; Particles size 0.479 µm, MICRONIZATION-2, five repeated micronization procedures): 5.36%
Volume (%) under ([2]; Particles size 0.479 µm, MICRONIZATION-3, five repeated micronization procedures): 19.32%
Volume (%) under ([2]; Particles size 0.550 µm, MICRONIZATION-1, five repeated micronization procedures): 1.12%
Volume (%) under ([2]; Particles size 0.550 µm, MICRONIZATION-2, five repeated micronization procedures): 7.01%
Volume (%) under ([2]; Particles size 0.550 µm, MICRONIZATION-3, five repeated micronization procedures): 25.19%
Volume (%) under ([2]; Particles size 0.631 µm, MICRONIZATION-1, five repeated micronization procedures): 2.02%
Volume (%) under ([2]; Particles size 0.631 µm, MICRONIZATION-2, five repeated micronization procedures): 9.13%
Volume (%) under ([2]; Particles size 0.631 µm, MICRONIZATION-3, five repeated micronization procedures): 31.12%
Volume (%) under ([2]; Particles size 0.724 µm, MICRONIZATION-1, five repeated micronization procedures): 3.29%
Volume (%) under ([2]; Particles size 0.724 µm, MICRONIZATION-2, five repeated micronization procedures): 11.51%
Volume (%) under ([2]; Particles size 0.724 µm, MICRONIZATION-3, five repeated micronization procedures): 36.14%
Volume (%) under ([2]; Particles size 0.832 µm, MICRONIZATION-1, five repeated micronization procedures): 4.78%
Volume (%) under ([2]; Particles size 0.832 µm, MICRONIZATION-2, five repeated micronization procedures): 13.61%
Volume (%) under ([2]; Particles size 0.832 µm, MICRONIZATION-3, five repeated micronization procedures): 42.72%
Volume (%) under ([2]; Particles size 0.955 µm, MICRONIZATION-1, five repeated micronization procedures): 6.12%
Volume (%) under ([2]; Particles size 0.955 µm, MICRONIZATION-2, five repeated micronization procedures): 16.29%
Volume (%) under ([2]; Particles size 0.955 µm, MICRONIZATION-3, five repeated micronization procedures): 50.02%
Volume (%) under ([2]; Particles size 1.096 µm, MICRONIZATION-1, five repeated micronization procedures): 8.44%
Volume (%) under ([2]; Particles size 1.096 µm, MICRONIZATION-2, five repeated micronization procedures): 19.17%
Volume (%) under ([2]; Particles size 1.096 µm, MICRONIZATION-3, five repeated micronization procedures): 59.80%
Amorphous Content (%, w/w) ([3]; MICRONIZATION-1, five repeated micronization procedures): 3.68 %, w/w
Amorphous Content (%, w/w) ([3]; MICRONIZATION-2, five repeated micronization procedures): 6.12 %, w/w
Amorphous Content (%, w/w) ([3]; MICRONIZATION-3, five repeated micronization procedures): 19.23 %, w/w
SMILES: C[C@H]1[C@H](C)CC[C@]2(C(=O)O)CC[C@]3(C)C(=CC[C@@H]4[C@@]5(C)CC[C@H](O)C(C)(C)[C@@H]5CC[C@]43C)[C@H]12 [ursolic acid]
